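Tested at 5 concentrations; 48 h exposure; 96-well plates; endpoints linearly interpolated, else capped at highest concentration. At the GI50, growth is halved. At the TGI there is no net growth.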
Key:
Experiment in all cases: NCI anticancer screen, dose series, 48 h
[1] = system: CAKI-1 renal
[2] = system: LOX IMVI melanoma
[3] = system: MCF7 breast
[4] = system: SF-268 CNS
[5] = system: OVCAR-3 ovarian
[6] = system: HCC-2998 colon
[7] = system: U251 CNS
[8] = system: SNB-75 CNS
[9] = system: A549 NSCLC
[10] = system: NCI/ADR-RES ovarian
[11] = system: NCI-H23 lung
[12] = system: SF-295 CNS
[13] = system: RXF 393 renal
[14] = system: HCT-116 colon
[15] = system: UACC-62 melanoma
[16] = system: EKVX NSCLC
[17] = system: SW-620 colon
[18] = system: MDA-MB-435
[19] = system: PC-3 prostate
[20] = system: ACHN renal
[21] = system: OVCAR-5 ovarian
[22] = system: BT-549 breast
[23] = system: DU-145 prostate
[24] = system: HT29 colon
[25] = system: HL-60(TB) leukemia
[26] = system: SK-MEL-28 melanoma
[27] = system: A498 renal
[28] = system: HS 578T breast
[29] = system: 786-0 renal
[30] = system: NCI-H226 lung
[31] = system: OVCAR-4 ovarian
[32] = system: SK-MEL-2 melanoma
[33] = system: HOP-62 NSCLC
[34] = system: HCT-15 colon
[35] = system: T-47D breast
[36] = system: HOP-92 NSCLC
[37] = system: UACC-257 melanoma
[38] = system: SK-MEL-5 melanoma
[39] = system: COLO 205 colon
[40] = system: KM12 colon
[41] = system: SK-OV-3 ovarian
[42] = system: IGROV1 ovarian
[43] = system: MALME-3M melanoma
[44] = system: SR leukemia
[45] = system: UO-31 renal
[46] = system: MOLT-4 leukemia
[47] = system: NCI-H460 lung
[48] = system: SNB-19 CNS
[49] = system: K-562 leukemia
[50] = system: OVCAR-8 ovarian
[51] = system: CCRF-CEM leukemia
[52] = system: SF-539 CNS
[53] = system: SN12C renal
[54] = system: RPMI-8226 leukemia

## CCCCCCCCCCCC[N+]1(CCCCCCCCCCCC)CCCC(C)C1 (stereo unspecified)
[1]
  TGI: 1920 nM
[2]
  GI50: 348 nM
  TGI: 1390 nM
[3]
  GI50: 257 nM
  TGI: 1200 nM
[4]
  GI50: 293 nM
  TGI: 1250 nM
[5]
  GI50: 197 nM
  TGI: 569 nM
[6]
  GI50: 303 nM
  TGI: 1380 nM
[7]
  GI50: 327 nM
  TGI: 1290 nM
[8]
  GI50: 349 nM
  TGI: 1630 nM
[9]
  GI50: 172 nM
  TGI: 736 nM
[10]
  GI50: 4410 nM
  TGI: > 100000 nM
[11]
  GI50: 113 nM
  TGI: 399 nM
[12]
  GI50: 259 nM
  TGI: 1290 nM
[13]
  GI50: 198 nM
  TGI: 894 nM
[14]
  GI50: 185 nM
  TGI: 1210 nM
[15]
  GI50: 244 nM
  TGI: 1270 nM
[16]
  GI50: 269 nM
  TGI: 1650 nM
[17]
  GI50: 303 nM
  TGI: 1330 nM
[18]
  GI50: 277 nM
  TGI: 1090 nM
[19]
  GI50: 167 nM
  TGI: 536 nM
[20]
  GI50: 984 nM
  TGI: 2270 nM
[21]
  GI50: 1060 nM
  TGI: 2290 nM
[22]
  GI50: 817 nM
  TGI: 3250 nM
[23]
  GI50: 570 nM
  TGI: 1870 nM
[24]
  GI50: 186 nM
  TGI: 1090 nM
[25]
  GI50: 174 nM
  TGI: 666 nM
[26]
  GI50: 487 nM
  TGI: 1730 nM
[27]
  GI50: 1260 nM
  TGI: 2520 nM
[28]
  GI50: 472 nM
  TGI: 2200 nM
[29]
  GI50: 412 nM
  TGI: 1660 nM

## C#CC[C@@H]1C[C@]2(C)[C@H]3CC[C@@H]4[C@H]5C(C(=C)C)CC[C@]5(C(=O)NCCN(CCN)CCN)CC[C@@]4(C)[C@]3(C)CC[C@H]2C(C)(C)[C@H]1OC(C)=O (stereo partly specified)
[30]
  GI50: 2060 nM
  TGI: 4690 nM
[31]
  GI50: 2350 nM
  TGI: 5320 nM

## O=C(NCc1cccc(CNC(=O)Nc2nc3ccccc3[nH]2)c1)Nc1nc2ccccc2[nH]1
[1]
  GI50: > 100000 nM
  TGI: > 100000 nM
[8]
  GI50: 1580 nM
  TGI: 4180 nM
[32]
  GI50: 2360 nM
  TGI: 7100 nM
[10]
  GI50: > 100000 nM
  TGI: > 100000 nM
[33]
  GI50: 1950 nM
  TGI: 4920 nM
[20]
  GI50: 4160 nM
  TGI: > 100000 nM
[34]
  GI50: > 100000 nM
  TGI: > 100000 nM
[25]
  GI50: > 100000 nM
  TGI: > 100000 nM
[27]
  GI50: 2070 nM
  TGI: 5110 nM
[35]
  GI50: 3330 nM
  TGI: > 100000 nM
[36]
  GI50: 1250 nM
  TGI: 3260 nM

## COc1cc(/C=C2\C[C@H]3[C@@H]4CCc5cc(OCCN6CCCC6)ccc5[C@H]4CC[C@]3(C)C2=O)cc(OC)c1OC
[37]
  TGI: 4890 nM
[38]
  TGI: 2860 nM
[32]
  TGI: 5340 nM
[11]
  TGI: 7400 nM
[39]
  TGI: 2810 nM
[15]
  TGI: 7220 nM
[34]
  TGI: 3770 nM
[22]
  TGI: > 100000 nM
[23]
  TGI: 3560 nM
[40]
  TGI: 3360 nM
[41]
  TGI: 8300 nM

## c1ccc(-c2c(-c3ccccc3)[n+](Cc3ccc4ccccc4c3)c(-c3ccc(-c4nc5ccccc5s4)cc3)n2Cc2ccc3ccccc3c2)cc1
[42]
  GI50: 121 nM
  TGI: 408 nM
[1]
  GI50: 189 nM
  TGI: 451 nM
[43]
  GI50: 53.6 nM
  TGI: 204 nM
[44]
  GI50: 140 nM
  TGI: 756 nM
[3]
  GI50: 58.7 nM
  TGI: 337 nM
[5]
  GI50: 81.4 nM
  TGI: 626 nM
[45]
  GI50: 280 nM
  TGI: 872 nM
[46]
  GI50: 139 nM
  TGI: 759 nM
[6]
  GI50: 244 nM
  TGI: 1010 nM
[8]
  GI50: 201 nM
  TGI: 895 nM
[9]
  GI50: 176 nM
  TGI: 1550 nM
[10]
  GI50: 1070 nM
  TGI: 2610 nM
[11]
  GI50: 93.3 nM
  TGI: 759 nM
[47]
  GI50: 231 nM
  TGI: 1110 nM
[15]
  GI50: 236 nM
  TGI: 1250 nM
[16]
  GI50: 187 nM
  TGI: 1190 nM
[17]
  GI50: 140 nM
  TGI: 764 nM
[18]
  GI50: 209 nM
  TGI: 557 nM
[19]
  GI50: 111 nM
  TGI: 528 nM
[20]
  GI50: 178 nM
  TGI: 378 nM
[48]
  GI50: 78.4 nM
  TGI: 1260 nM
[21]
  GI50: 311 nM
  TGI: 1170 nM
[49]
  GI50: 94.5 nM
  TGI: 3790 nM
[34]
  GI50: 335 nM
  TGI: 1130 nM
[50]
  GI50: 151 nM
  TGI: 1120 nM
[51]
  GI50: 202 nM
  TGI: > 41500 nM
[23]
  GI50: 262 nM
  TGI: 1030 nM
[52]
  GI50: 305 nM
  TGI: 1240 nM
[25]
  GI50: 149 nM
  TGI: 471 nM
[26]
  GI50: 368 nM
  TGI: 1570 nM
[53]
  GI50: 218 nM
  TGI: 1040 nM
[31]
  GI50: 48.6 nM
  TGI: 1120 nM
[40]
  GI50: 130 nM
  TGI: 336 nM
[27]
  GI50: 156 nM
  TGI: 542 nM
[54]
  GI50: 62.5 nM
  TGI: 426 nM
[28]
  GI50: 296 nM
  TGI: 1410 nM

— PubChem BioAssay (NCI)
